According to PubChem BioAssay (NCI):
Values joined by “and” are separate entries in the source; they are usually repeats but may differ in a detail not shown here. Equal entries are not always repeated.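 In this assay, cells in 96-well plates receive the compound at five concentrations for 48 hours. Endpoints are linearly interpolated between the surrounding concentrations. GI50 is the concentration that inhibits growth by half. TGI marks complete inhibition of growth.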

Legend:
Assay in all cases: NCI tumour cell line growth inhibition, 48 h
[1] = system: NCI-H23 lung
[2] = system: SK-MEL-2 melanoma
[3] = system: HCT-15 colon
[4] = system: CAKI-1 renal
[5] = system: MOLT-4 leukemia
[6] = system: SF-268 CNS
[7] = system: HOP-92 NSCLC
[8] = system: K-562 leukemia
[9] = system: NCI-H460 lung
[10] = system: RXF 393 renal

Structure (SMILES)	GI50 [1]	TGI [1]	GI50 [2]	TGI [2]	GI50 [3]	TGI [3]	GI50 [4]	TGI [4]	GI50 [5]	TGI [5]	GI50 [6]	TGI [6]	GI50 [7]	TGI [7]	GI50 [8]	TGI [8]	GI50 [9]	TGI [9]	GI50 [10]	TGI [10]
O=C(O)c1ccc2c(c1)CCCC(c1ccc(Cl)cc1Cl)=C2c1ccc(O[C@H]2CCN(CCCF)C2)cc1	13.2 µM	29.3 µM	14.3 µM	30.6 µM	6.38 µM	20.1 µM	11.5 µM	24 µM	8.62 µM	24.2 µM	12.1 µM	28.5 µM	11.3 µM	25.1 µM	8.05 µM	23.1 µM	9.27 µM	23.8 µM	3.38 µM	17 µM
C=CC(=O)Nc1cc2c(Nc3ccc(F)c(Cl)c3)ncnc2cc1OCCCN1CCOCC1	1.82 µM and 2.39 µM	3.94 µM and > 6.12 µM	1.96 µM and 2.17 µM	3.79 µM and > 6.51 µM	1.4 µM and 2.17 µM	3.6 µM and > 6.04 µM	–	2.67 µM and > 10 µM	1.85 µM and 2.87 µM	5.18 µM and > 9.25 µM	1.77 µM and 3.47 µM	5.13 µM and > 10 µM	0.534 µM and 0.551 µM	2.49 µM and 5.9 µM	1.91 µM and 2.84 µM	14.5 µM and > 10 µM	3.65 µM and 5.27 µM	15.4 µM and > 10 µM	1.32 µM and 1.88 µM	2.82 µM and 6.23 µM
Cc1cccc(-n2c(=S)[nH]c3c(sc(=O)n3-c3ccccc3C)c2=O)c1	–	> 100 µM	–	> 100 µM	–	> 100 µM	–	> 100 µM	–	> 100 µM	–	> 100 µM	–	> 100 µM	–	> 100 µM	–	> 100 µM	–	> 100 µM
CN1CC[C@]2(C)c3ccc(O)cc3CC3CCCC1C32C (some centres not stated)	–	> 100 µM	–	> 100 µM	–	> 100 µM	–	> 100 µM	–	> 100 µM	–	> 100 µM	–	> 100 µM	–	> 100 µM	–	> 100 µM	–	> 100 µM
CCOc1cc(/C=N\Nc2nnc(C)n2N)c(C)cc1N(CCCl)CCCl	0.8 µM	9.49 µM	2.11 µM	5.33 µM	1.28 µM	> 44.5 µM	1.31 µM	9.44 µM	0.876 µM	8.58 µM	1.97 µM	> 92.6 µM	0.163 µM	1.12 µM	0.646 µM	> 100 µM	0.843 µM	31.5 µM	1.2 µM	17.7 µM
COc1ccc2[nH]c(O)c(C(=Nc3ccc(N(C)C(=O)CN4CCN(C)CC4)cc3)c3ccccc3)c2c1	1.73 µM	12.2 µM	2.12 µM	5.37 µM	2.65 µM	12 µM	0.847 µM	5.92 µM	1.45 µM	4.99 µM	2.1 µM	7.55 µM	0.436 µM	5.55 µM	0.609 µM	13.8 µM	2.83 µM	11.1 µM	1.04 µM	2.36 µM
Cc1ccc(-c2cc(-c3ccco3)c(C#N)c(=O)n2C2OC(OC(=O)c3ccccc3)C(OC(=O)c3ccccc3)C2OC(=O)c2ccccc2)cc1 (configuration not stated)	–	–	–	> 100 µM	–	> 100 µM	–	> 100 µM	–	> 100 µM	–	> 100 µM	–	59.4 µM	–	> 100 µM	–	> 100 µM	–	88.4 µM
COc1ccc(N2C(=O)[C@H]3CC(C)c4c([nH]c5ccccc45)[C@H]3C2=O)cc1 (some centres not stated)	–	29.4 µM	–	16.5 µM	–	> 100 µM	–	27.3 µM	–	49.4 µM	–	> 76.2 µM	–	23.3 µM	–	20 µM	–	41.9 µM	–	9.75 µM
O=C(O)C1CCCCC1C(=O)O.[NH-]C1CCC1.[NH2-].[Pt+2] (configuration not stated)	22.4 µM	> 100 µM	57.2 µM	> 100 µM	17.3 µM	34.5 µM	2.61 µM	17.4 µM	5.48 µM	> 100 µM	> 100 µM	> 100 µM	19.4 µM	44 µM	29.6 µM	> 100 µM	22.7 µM	> 100 µM	52.8 µM	> 100 µM
CC[C@]1(O)C(=O)OCc2c1cc1n(c2=O)Cc2cc3c(N)cccc3nc2-1	–	> 100 µM	–	> 100 µM	–	> 100 µM	–	> 100 µM	–	> 100 µM	–	> 100 µM	–	> 100 µM	–	> 100 µM	–	> 100 µM	–	> 100 µM
CCn1c2ccc(O)cc2c2c(C)c3c[n+](C)ccc3c(C)c21	1.44 µM	25.8 µM	3.91 µM	20.1 µM	29.4 µM	> 100 µM	65.2 µM	> 100 µM	2.06 µM	95.1 µM	0.122 µM	4.33 µM	2.07 µM	30.3 µM	6.03 µM	> 100 µM	0.752 µM	11 µM	5.58 µM	> 100 µM
COc1cc2ncnc(Nc3ccc(F)c(Cl)c3)c2cc1NC(=O)/C=C/CN1CCCCC1	2.65 µM and 2.54 µM	7.81 µM and > 8.79 µM	1.81 µM and 1.72 µM	3.52 µM and 3.39 µM	1.07 µM and 1.12 µM	4.6 µM and 3.81 µM	–	2.81 µM and 3.43 µM	1.41 µM and 1.59 µM	4.97 µM and 7.26 µM	1.5 µM and 1.42 µM	3.99 µM and 4.73 µM	0.0672 µM and 0.643 µM	2.43 µM and 5.63 µM	1.65 µM and 2.05 µM	5.12 µM and > 8.09 µM	2.18 µM and 2.4 µM	6.22 µM and 7 µM	0.919 µM and 0.89 µM	2.55 µM and 2.94 µM
Cc1sc2nc3c4ccccc4c(NCCCN(C)C)nn3c(=O)c2c1C	8.45 µM	23 µM	20 µM	39.7 µM	6.73 µM	20.8 µM	8.87 µM	23.5 µM	0.782 µM	3.38 µM	9.66 µM	24.1 µM	5.57 µM	20 µM	1.93 µM	3.9 µM	1.08 µM	5.35 µM	5.2 µM	19.8 µM
COc1ccc(-c2ccc(-c3ccc(C(=N)N)cn3)o2)cc1	11.6 µM	25.5 µM	4.91 µM	15.9 µM	4.62 µM	17.7 µM	6.79 µM	20.7 µM	4.4 µM	15.5 µM	11.2 µM	25.3 µM	1.31 µM	6.4 µM	3.97 µM	13.5 µM	3.69 µM	14 µM	7.01 µM	20 µM
